Where a name gives a salt, the structure may show the parent alone. Read-outs that look alike come from different tables or passages of the source.
Columns and labels:
SARS-CoV-2 [1] = system: SARS-CoV-2
in vitro [2] = conditions: human
in vitro [3] = conditions: human; remark: listed apart in the source
Experimental: To assess cell viability, 2 μL of 50% Cell-Titer Glo (Promega No G7573) diluted in water was added to the cells and luminescence measured on an EnVision Plate Reader (Perkin Elmer).
Data analysis. […] Primary in vitro screen and the host cell cytotoxicity counter screen data were uploaded to Genedata Screener, Version 16.0.3-Standard. […] For the uninfected host cell cytotoxicity counter screens, 40 μM puromycin (Sigma) was used as the positive (inhibitory) control in HeLa-ACE2, HepG2 and HEK293T cells, and 30 μM puromycin (Sigma) was used as the positive (inhibitory) control for Calu-3 cells. For dose response experiments compounds were tested in technical triplicates on different assay plates and dose curves were fitted with the four parameter Hill Equation. Technical replicate data were analyzed using median condensing. Geometric means and geometric standard deviations are reported for compound activities (EC50s and CC50s) obtained in multiple independent biological experiments. […] Geometric means were calculated by computing the logarithm (base 10) of all values, calculating the mean of these logarithms, and taking the antilog of that mean. Geometric standard deviations were computed by taking the standard deviation of the log-transformed individual values and taking the antilog of that standard deviation. The geometric standard deviation is a unitless ratio and reported as ×÷ instead of +/−.

SARS-CoV-2 [4] = experiment: microbe, parasite or virus in culture
SARS-CoV-2 [5] = experiment: microbe, parasite or virus in culture; conditions: Severe acute respiratory syndrome coronavirus 2, Calu-3, 48 h, read-out: Calu-3 CoV-2 EC50 [μM]
SARS-CoV-2 [6] = conditions: for HeLa-ACE2 SI CC50/CoV-2 EC50: Table 4
HeLa-ACE2 cells = experiment: cells; type: cell-based, human; conditions: Homo sapiens, HeLa-ACE2, read-out: HeLa-ACE-2 EC50 [μM] (Geomeans, n ≥ 2)
[7] = HeLa-ACE2 Uninfected Tox CC50 [μM], Table 4, aggregated data, Geomean, n = 3
[8] = Severe acute respiratory syndrome coronavirus 2, HeLa-ACE2, read-out: HeLa-ACE2 CoV-2 EC50 [μM], Table 4, aggregated data, Geomean, n = 3
[9] = CC50 [μM] (Geomeans, n ≥ 2 except where indicated: *n = 1)
[10] = Severe acute respiratory syndrome coronavirus 2, HeLa-ACE2, 24 h, read-out: CoV-2 EC50 [μM] (Geomeans, n ≥ 2)

| Compound | Calu3 SI CC50/CoV-2 EC50 (SARS-CoV-2 [1]; Table 4) | CC50 (in vitro [2]; [7]) [µM] | CC50 (in vitro [3]) [µM] | EC50 (SARS-CoV-2 [5]) [µM] | EC50 (HeLa-ACE2 cells) [µM] | HeLa-ACE2 CC50/CoV-2 EC50 (SARS-CoV-2 [6]) | CC50 (in vitro [2]; [9]) [µM] | EC50 (SARS-CoV-2 [4]; [10]) [µM] | also measured |
| --- | --- | --- | --- | --- | --- | --- | --- | --- | --- |
| CCCCCCCC/C=C/CCCCCCCC(=O)OC[C@H]1O[C@@H](n2ccc(N)nc2=O)C(F)(F)[C@@H]1O [Gemcitabine elaidate] | >92 | 6.01 | > 29.9 | 0.324 |  |  |  |  | EC50 (SARS-CoV-2 [4]; [8]): > 9.59 µM |
| CCc1ccc(C2=CC(C)(C)Sc3ccc(C#Cc4ccc(C(=O)O)cc4)cc32)cc1 [AGN-194310] |  |  | > 29.9 | 0.597 |  |  |  |  | Calu3 SI CC50/CoV-2 EC50 (SARS-CoV-2 [1]): >50; CC50 (in vitro [2]; HeLa-ACE2 Uninfected Tox CC50 [μM]): > 39.8 µM |
| CSc1ccc(CN2CCCC(Nc3ccc4[nH]ncc4c3)C2)cc1 (stereo not shown) [INS-117548] | >8.42 | > 39.8 | > 29.9 | > 3.55 |  |  |  |  | HeLa-ACE2 SI CC50/CoV-2 EC50 (SARS-CoV-2 [6]): 4.15 |
| N=C(N)Nc1ccc(C(=O)Oc2ccc(S(N)(=O)=O)cc2)cc1 [Ono-3307] | >16 | > 39.8 | > 29.9 | 1.6 |  |  |  |  |  |
| CC[C@@H]1/C=C/C=C/C[C@H](C)[C@@H](O)[C@](C)(O)C(=O)[C@H](C)[C@@H](O)[C@H](C)C(=O)[C@H](C)[C@@H](O)[C@H](C)/C=C/C(=O)O[C@H]2[C@@H](C)[C@@H](CC1)O[C@@]1(CC[C@@H](C)[C@@H](C[C@H](C)O)O1)[C@@H]2C [OLIGOMYCINA] | >4000 | 36 | > 29.9 | 0.007 |  |  |  |  | EC50 (SARS-CoV-2 [4]; [8]): > 9.59 µM |
| COC(=O)[C@]12CCC(C)(C)C[C@H]1[C@H]1C(=O)C=C3[C@@]4(C)C=C(C#N)C(=O)C(C)(C)[C@@H]4CC[C@@]3(C)[C@]1(C)CC2 [Bardoxolone Methyl] | 38.47 | 3.1 | 3.06 |  |  |  |  |  | HeLa-ACE2 SI CC50/CoV-2 EC50 (SARS-CoV-2 [6]): 5.73 |
| CC(C)(C)c1ccc(CSc2cnn(C(C)(C)C)c(=O)c2Cl)cc1 [PYRIDABEN] | 43.89 | > 39.8 | 8.99 | 0.205 |  |  |  |  |  |
| CCCCCCC1C(=O)O[C@H](C)[C@H](NC(=O)c2cccc(NC=O)c2O)C(=O)O[C@@H](C)[C@@H]1OC(=O)CC(C)C (stereo partly shown) [Antimycin A] | 22.00 | > 39.8 | 0.608 | 0.028 |  |  |  |  | EC50 (SARS-CoV-2 [4]; [8]): > 9.59 µM |
| CC/C(=C(/c1ccc(/C=C/C(=O)O)cc1)c1ccc2[nH]ncc2c1)c1ccc(F)cc1Cl [ARN-810] | 21.60 | 11 | 23.8 | 1.1 |  |  |  |  |  |
| O=C(c1ccccc1)c1cccc(NC(=O)c2ccn3c2CSC3c2cccnc2)c1 (stereo not shown) [TULOPAFANT] | 5.01 | 36.6 | 14.6 | 2.92 |  |  |  |  | EC50 (SARS-CoV-2 [4]; [8]): > 9.59 µM |
| COCc1c(C(C)C)nc(C(C)C)c(/C=C/[C@@H](O)C[C@@H](O)CC(=O)O)c1-c1ccc(F)cc1 [cerivastatin (sodium salt)] | >85 | 0.308 | > 29.9 | 0.348 |  |  |  |  |  |
| O[C@@H]1CO[C@H]2[C@@H]1OC[C@H]2Oc1nc2nc(-c3ccc(-c4ccccc4)cc3)c(Cl)cc2[nH]1 [MK-8722] | >10 | 37.4 | > 29.9 | 2.73 |  |  |  |  |  |
| CC(=O)O[C@H]1C[C@H](O[C@H]2[C@@H](O)C[C@H](O[C@H]3[C@@H](O)C[C@H](O[C@H]4CC[C@@]5(C)[C@H](CC[C@@H]6[C@@H]5C[C@@H](O)[C@]5(C)[C@@H](C7=CC(=O)OC7)CC[C@]65O)C4)O[C@@H]3C)O[C@@H]2C)O[C@H](C)[C@H]1O[C@@H]1O[C@H](CO)[C@@H](O)[C@H](O)[C@H]1O [LANATOSIDE] | 31.97 | 1.35 | 6.21 | 0.194 |  |  |  |  | HeLa-ACE2 SI CC50/CoV-2 EC50 (SARS-CoV-2 [6]): 6.56 |
| C=C(C)[C@@H]1CC[C@]2(C(=O)OCC(N)(CO)CO)CC[C@]3(C)[C@H](CC[C@@H]4[C@@]5(C)CC[C@H](OC(C)=O)C(C)(C)[C@@H]5CC[C@]43C)[C@@H]12 [NVX-207] |  |  |  |  | 5.88 | 4.37 | 8.19 | 1.87 |  |
| C[C@@H](n1cnc2cc(Cl)ccc2c1=O)[C@](O)(Cn1cncn1)c1ccc(F)cc1F [albaconazole] |  |  |  |  | > 9.59 | 6.6 | > 39.8 | > 6.04 |  |
| Cc1cn2nc(-c3cc(=O)n4cc(N5CCNC6(CC6)C5)ccc4n3)cc(C)c2n1 [Risdiplam] |  |  |  |  | > 7.05 | 2.53 | > 17.8 | > 7.05 |  |
| COc1ccc(C2(c3ccccc3)NC(=O)N(CCCN3CCC(c4ccccc4)CC3)C2=O)cc1 (stereo not shown) [ROPITOIN] |  |  |  |  | > 9.59 | 5.28 | 21.5 | 4.08 |  |
| O=c1nc(NO)ccn1[C@@H]1O[C@H](CO)[C@@H](O)[C@H]1O [N-hydroxycytidine] |  |  |  |  | > 9.6 | >18.13 | > 37.5 |  | activity in HeLa-ACE2 infection assay (SARS-CoV-2 [6]): potent and selective; activity in Calu-3 infection assay (SARS-CoV-2 [1]): potent and selective |
| C=CC(=O)Nc1cc2c(Nc3ccc(F)c(Cl)c3)ncnc2cc1C#CC(C)(C)N1CCN(C)CC1 [MP-412] |  |  |  |  | 1.25 | 4.18 | 3.18 | 0.761 |  |

| Compound | Calu3 SI CC50/CoV-2 EC50 (SARS-CoV-2 [1]; Table 4) | CC50 (in vitro [2]; [7]) [µM] | CC50 (in vitro [3]) [µM] | EC50 (SARS-CoV-2 [5]) [µM] | EC50 (HeLa-ACE2 cells) [µM] | HeLa-ACE2 CC50/CoV-2 EC50 (SARS-CoV-2 [6]) | CC50 (in vitro [2]; [9]) [µM] | EC50 (SARS-CoV-2 [4]; [10]) [µM] | also measured |
| --- | --- | --- | --- | --- | --- | --- | --- | --- | --- |
| O=c1[nH]ccc2cc(OC3CCNCC3)ccc12 [SAR-407899] | >7.77 | > 38.7 | > 29.9 | > 3.85 |  |  |  |  | HeLa-ACE2 SI CC50/CoV-2 EC50 (SARS-CoV-2 [6]): 4.03 |
| C[C@@H]1CCCN1CCc1cc2cc(-c3ccc(C#N)cc3)ccc2o1 [ABT-239] |  |  |  |  | > 7.49 | 11.18 | > 37.2 | > 3.33 |  |
| N#Cc1cccc(C(C(=O)NCC(c2ccccc2)c2ccccc2)N(CCc2c[nH]cn2)C(=O)c2ccccc2C(=O)c2ccccc2)c1 (stereo not shown) [GENZ-29155] | >6.41 | > 38.5 | > 29.9 | > 4.66 |  |  |  |  | HeLa-ACE2 SI CC50/CoV-2 EC50 (SARS-CoV-2 [6]): 4.01 |
| Cc1cccc(C)c1NC(=O)CN1CCN([C@@H]2CCN(C(=O)c3cc(C(F)(F)F)cc(C(F)(F)F)c3)[C@@H](Cc3ccccc3)C2)CC1 [R-116301] |  |  |  |  | > 9.59 | 3.73 | 25.5 | 6.83 |  |
| c1cn2cc(-c3ccc4c(c3)nc3n4CCN4CCCCC4C3)ccc2n1 (stereo not shown) [Integrity ID 725781] |  |  |  |  | > 9.59 | 4.41 | > 39.8 | > 9.04 |  |
| NC(N)=Nc1ncc(Cl)c2ccc(-c3cccc(C(=O)O)c3)cc12 [UK-356202] | >15 | > 39.8 | > 29.9 | 1.92 |  |  |  |  |  |
| O=C(Nc1ccc(Cl)c(S(=O)(=O)N2CCNCC2)c1O)Nc1cccc(F)c1Cl [Elubrixitosylate] | >4.28 | > 39.8 | > 29.6 | 6.91 |  |  |  |  | HeLa-ACE2 SI CC50/CoV-2 EC50 (SARS-CoV-2 [6]): 4.35 |
| CN1CCN(CCCN2c3ccccc3Sc3ccc(S(=O)(=O)N(C)C)cc32)CC1 [Thioproperazine] |  |  |  |  | > 9.59 | 7.29 | 22.1 | 3.03 |  |
| CC(=O)N1C[C@H](O)C[C@H]1C(=O)N[C@@H](CCCNC(=N)N)C(=O)c1nc2ccccc2s1 [RWJ-56423] | >24 | > 39.8 | > 29.9 | 1.23 |  |  |  |  |  |
| O=C(c1ccc(OCCN2CCCCC2)cc1)c1c(-c2ccc(O)cc2)sc2cc(O)ccc12 [raloxifene hydrochloride] |  |  |  |  | > 8.71 | >2.97 | > 13.3 | 4.48 |  |
| C=Cc1cc(C(=O)Nc2ccc(C(=N)N)cc2)c(-c2ccc(C(=O)NCC3CC3)nc2C(=O)O)cc1OC [Avoralstat] | >77 | > 39.8 | > 29.9 |  |  |  |  |  | activity in Calu-3 infection assay (SARS-CoV-2 [1]): active |
| CCNCc1cc(Nc2ccnc3cc(Cl)ccc23)ccc1O |  |  |  |  | > 9.59 | >16.69 | > 20.4 | 1.22 |  |
| C=CCc1c(OCCCNCc2ccccc2)ccc2c1[nH]c1ccccc12 [YM-75440] |  |  |  |  | > 6.58 | 4.89 | 8.01 | 1.64 |  |
| CCCN1CCN(c2ccc(C(=O)NC3(C(=O)NCC#N)CCCCC3)cc2)CC1 [Balicatib] |  |  |  |  | > 9.59 | >7.79 | > 39.8 | 5.11 |  |
| CC(C)(C)NC(=O)N[C@H](C(=O)N1C[C@H]2[C@@H]([C@H]1C(=O)NC(CC1CCC1)C(=O)C(N)=O)C2(C)C)C(C)(C)C (stereo partly shown) [Boceprevir] |  |  |  |  | > 7.08 | 4.27 | > 39.8 | > 9.34 |  |
| CC(=N)N1CCC(Oc2ccc(N(Cc3ccc4ccc(C(=N)N)cc4c3)S(=O)(=O)CC(=O)O)cc2)CC1 [YM 60828] | >9 | > 39.8 | > 29.9 | 3.38 |  |  |  |  |  |
| CC[C@@H]1/C=C/C=C/C[C@H](C)[C@@H](O)[C@](C)(O)C(=O)[C@H](C)[C@@H](O)[C@H](C)C(=O)[C@H](C)[C@@H](O)[C@H](C)/C=C/C(=O)O[C@H]2[C@@H](C)[C@@H](CC1)O[C@]1(O[C@H](C[C@H](C)O)[C@H](C)CC1=O)[C@@H]2C [Oligomycin B] | 4539.49 |  |  | 0.005 |  |  |  |  | CC50 at 48 h (in vitro [3]): 24.5 µM |
| CN(C)CCC(Oc1ccc2c(c1)C(=O)CC(c1ccccc1)O2)c1ccccc1 (stereo not shown) [RFM-007-454-4] |  |  |  |  | > 9.59 | >6.13 | > 23.5 | 3.83 |  |

Reference: patent US20230346820A1, “METHODS AND COMPOSITIONS FOR THE TREATMENT OF SARS-COV-2” (priority 2020, published 2023)
